{"source": "paper PMC11472310", "about": "“Distinctive Immune Signatures Driven by Structural Alterations in Desmuramylpeptide NOD2 Agonists” (Journal of Medicinal Chemistry, 2024)", "key": {"[1]": {"system": "CD8+ T cells cocultured with BMDCs", "experiment": "BMDC antigen cross-presentation to ovalbumin-specific CD8+ T cells (OT I)", "format": "cell-based, C57BL/6 mouse", "details": "BMDCs pretreated 10 μM + ovalbumin 50 μg/mL 18 h, coculture 72 h; OVA-treated cells 23.3%", "experimental": "(§1) For this study, we narrowed down the selection of suitable desmuramylpeptides even further. In order to assess the adjuvant potential of selected desmuramylpeptides with regard to their effect on DC-mediated activation of CD4^+ and CD8^+ T cells, we conducted an ex vivo antigen-presentation assay utilizing C57BL/6 mouse bone marrow-derived DCs (BMDCs). Upon stimulation with desmuramylpeptides at 10 μM, in conjunction with ovalbumin soluble protein (50 μg/mL), BMDCs were cocultured with carboxyfluorescein succinimidyl ester (CFSE)-labeled naïve ovalbumin-specific CD4^+ or CD8^+ T cells, which were isolated from splenocytes of OT II and OT I transgenic mice, respectively. […] Additionally, we investigated how the priming of T cells elicited by the tested compounds impacted the cytokine profiles secreted in BMDC/T-cell cocultures.\nCD4^+ and CD8^+ T cells were isolated from splenocytes of OT II and OT I transgenic mice using CD4^+ and CD8^+ T cell isolation kits (Miltenyi Biotec, Germany) following the manufacturer’s instructions. The purified T cells were labeled with CFSE (Invitrogen, Carlsbad, CA, USA) and subsequently washed. Next, 5 × 10^4 T cells were combined with 1 × 10^4 BMDCs/well (pretreated with desmuramylpeptides at 10 μM and 50 μg/mL ovalbumin [Invivogen, San Diego, CA, USA] for 18 h and then washed). Following a 72-h incubation period at 37 °C with 5% CO2, supernatants were harvested and stored at −80 °C for cytokine analysis. The cells were then stained with Fixable viability dye eFluor 780 (eBioscience, Thermo Fisher Scientific, MA, USA), anti-Thy1.2-PE-Cy7 antibodies (Biolegend, San Diego, CA, USA), anti-CD8-eFluor450 antibodies (eBioscience), anti-CD4-eFluor450 antibodies (eBioscience), and anti-CD25-APC antibodies (Biolegend) before analysis using a Beckman Coulter Cytoflex S flow cytometer (CA, USA) and FlowJo software (Tree Star, Inc., Ashland, OR, USA). Live Thy1.2+/CD4+ and Thy1.2+/CD8+ cells were assessed for CFSE dilution and CD25 expression. […] Statistical significance was determined using paired t tests."}, "PBMCs": {"system": "PBMCs", "experiment": "Direct cytotoxic effect of compounds on PBMCs (Sytox blue)", "format": "cell-based", "details": "Table S2; alone: compounds 10 μM, LPS 1 μg/mL, IL-2 200 U/mL", "experimental": "Additionally, PBMCs and cancer cells alone were treated with desmuramylpeptides to assess any direct cytotoxic effects on these cells.\n(§2) The PBMC cytotoxicity assays utilizing K562 cells were conducted following previously established methods, with some adjustments.[82] […] Meanwhile, K562 cells were stained with CFSE (Invitrogen, Carlsbad, CA, USA), washed twice with complete medium, and then added (1 × 10^4 cells per well) to the pretreated PBMCs to achieve a final effector cell to target tumor cell ratio of 40:1. Following a 4-h coincubation period at 37 °C with 5% CO2, cells were stained with Sytox blue dead cell stain (Invitrogen) and analyzed using an Attune NxT flow cytometer (Thermo Fisher Scientific, Waltham, MA, USA) along with FlowJo software (Tree Star, Inc., Ashland, OR, USA). Cells positive for both CFSE and Sytox blue were designated as dead K562 cells. PBMCs alone and CFSE-labeled cancer cells alone were also exposed to the compounds at equivalent concentrations and stained with Sytox blue to assess any direct cytotoxic effects of the compounds on PBMCs and cancer cells separately. Each experiment was conducted in duplicate and repeated in three independent biological replicates. Statistical analysis was performed using one-way ANOVA followed by Dunnett’s multiple comparisons test."}, "[2]": {"system": "CD4+ T cells cocultured with BMDCs", "experiment": "BMDC antigen presentation to ovalbumin-specific CD4+ T cells (OT II)", "format": "cell-based, C57BL/6 mouse", "details": "BMDCs pretreated 10 μM + ovalbumin 50 μg/mL 18 h, coculture 72 h; OVA-treated cells 63.8%", "experimental": "as §1\nCD4^+ and CD8^+ T cells were isolated from splenocytes of OT II and OT I transgenic mice using CD4^+ and CD8^+ T cell isolation kits (Miltenyi Biotec, Germany) following the manufacturer’s instructions. The purified T cells were labeled with CFSE (Invitrogen, Carlsbad, CA, USA) and subsequently washed. Next, 5 × 10^4 T cells were combined with 1 × 10^4 BMDCs/well (pretreated with desmuramylpeptides at 10 μM and 50 μg/mL ovalbumin [Invivogen, San Diego, CA, USA] for 18 h and then washed). Following a 72-h incubation period at 37 °C with 5% CO2, supernatants were harvested and stored at −80 °C for cytokine analysis. The cells were then stained with Fixable viability dye eFluor 780 (eBioscience, Thermo Fisher Scientific, MA, USA), anti-Thy1.2-PE-Cy7 antibodies (Biolegend, San Diego, CA, USA), anti-CD8-eFluor450 antibodies (eBioscience), anti-CD4-eFluor450 antibodies (eBioscience), and anti-CD25-APC antibodies (Biolegend) before analysis using a Beckman Coulter Cytoflex S flow cytometer (CA, USA) and FlowJo software (Tree Star, Inc., Ashland, OR, USA). Live Thy1.2+/CD4+ and Thy1.2+/CD8+ cells were assessed for CFSE dilution and CD25 expression. Each experiment was performed in duplicate and repeated in two independent biological replicates. Statistical significance was determined using paired t tests."}, "K562 cancer cells": {"system": "K562 cancer cells", "experiment": "PBMC cytotoxicity against K562 cancer cells (flow cytometry)", "format": "cell-based", "details": "alone: compounds 10 μM, LPS 1 μg/mL, IL-2 200 U/mL", "experimental": "In this study, we investigated the potential of desmuramylpeptides, both alone and in combination with LPS, to enhance the cytotoxic activity of PBMCs against cancer cells employing a flow-cytometry-based cytotoxicity assay based on coincubation of preactivated PBMCs with fluorescently labeled K562 cancer cells.[82] Among the diverse subpopulations within PBMCs, natural killer (NK) cells play a pivotal role in detecting and eliminating cancer cells. NOD2-mediated NK cell activity against cancer cells arises from both direct NOD2 agonist elicited cytolytic activity of NK cells[83] and indirect activation through cytokine release by other NOD2-responsive cells, such as monocytes, which comprise approximately 10% of PBMCs; such interactions potentially reinforce the immune response.[84] […] To that end, we utilized the entire PBMC population as effector cells rather than isolated NK cells, to mimic conditions more closely resembling the in vivo environment while K562 chronic myelogenous leukemia cells were used as the target cells in a 40:1 effector to target cell ratio.[87]\nas §2"}}}
{"substance": "lipopolysaccharide [LPS, reference compound]", "values": [{"measurement": "fraction of activated and proliferating CD8+ T-cells (CD25+, CFSE low)", "setting": "[1]", "value": 55.6, "unit": "%"}, {"measurement": "Percent of dead PBMCs", "setting": "PBMCs", "value": "4.16% ± 0.47"}, {"measurement": "fraction of activated and proliferating CD4+ T-cells (CD25+, CFSE low)", "setting": "[2]", "value": 80.4, "unit": "%"}, {"measurement": "Cytotoxicity (ratio to control)", "setting": "K562 cancer cells; Table S2", "value": "1.8 ± 0.08"}, {"measurement": "enhancement of cytotoxicity of PBMCs against K562 cells (relative to negative control)", "setting": "K562 cancer cells; 18 h, then 4 h coincubation, effector:target 40:1", "value": 1.80, "unit": "fold"}]}
